These results are taken from PubChem BioAssay AID206 (DTP/NCI, 2004).

Where “and” joins values, the source holds several entries; their conditions need not be identical. Equal values may be shown once. Results filed as inconclusive are left out.

This assay deals with nude mice, HT29 intrarenal xenograft, tumor weight T/C. Briefly: NCI In Vivo Anticancer Drug Screen. Data for tumor model HT29;CX-1 Human Adenocarcinoma (MER+) (intrarenal inoculation) in NU/NU Swiss (nude) mice. As to conditions: endpoint: mean tumor weight change, higher = larger tumour. In short, it runs like this:
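T/C = treated-group value ÷ vehicle-group value, using tumor size or survival.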

The mark [1] stands for this setting: dose: 200.0 mg/kg/injection, schedule: Q04DX004 (sc), vehicle: suspension in saline.
The mark [2] stands for this setting: dose: 300.0 mg/kg/injection, schedule: Q04DX004 (sc), vehicle: saline with Tween-80.
[3] abbreviates: dose: 600.0 mg/kg/injection, schedule: Q04DX004 (sc), vehicle: saline with Tween-80.
Setting [4] is: dose: 1200.0 mg/kg/injection, schedule: Q04DX004 (sc), vehicle: saline with Tween-80.
Setting [5] is: dose: 5.0 mg/kg/injection, schedule: Q01DX010 (sc), vehicle: saline.
The mark [6] stands for this setting: dose: 10.0 mg/kg/injection, schedule: Q01DX010 (sc), vehicle: saline.
Where [7] appears, read: dose: 40.0 mg/kg/injection, schedule: Q01DX010 (sc), vehicle: saline.
Where [8] appears, read: dose: 150.0 mg/kg/injection, schedule: Q04DX004 (sc), vehicle: saline with Tween-80.
The mark [9] stands for this setting: dose: 300.0 mg/kg/injection, schedule: Q04DX004 (sc), vehicle: Klucel (hydroxypropylcellulose) (HPC).
Where [10] appears, read: dose: 600.0 mg/kg/injection, schedule: Q04DX004 (sc), vehicle: Klucel (hydroxypropylcellulose) (HPC).
The mark [11] stands for this setting: dose: 1200.0 mg/kg/injection, schedule: Q04DX004 (sc), vehicle: Klucel (hydroxypropylcellulose) (HPC).

With `CC(=O)[O][Pb]([O]C(C)=O)([c]1ccccc1)[c]1ccccc1`, the T/C by setting is: (dose: 250.0 mg/kg/injection, schedule: Q04DX004 (sc), vehicle: Klucel (hydroxypropylcellulose) (HPC)) 120 % of control; (dose: 500.0 mg/kg/injection, schedule: Q04DX004 (sc), vehicle: Klucel (hydroxypropylcellulose) (HPC)) 64 % of control; (dose: 1000.0 mg/kg/injection, schedule: Q04DX004 (sc), vehicle: Klucel (hydroxypropylcellulose) (HPC)) 44 % of control; (dose: 2000.0 mg/kg/injection, schedule: Q04DX004 (sc), vehicle: Klucel (hydroxypropylcellulose) (HPC)) 118 % of control.
For the molecule `Cn1cnc([N+](=O)[O-])c1Sc1ncn[nH]1`, the T/C under setting [1] was 49 % of control.
In the case of `COc1cc2c[n+](C)c3c4cc5c(cc4ccc3c2cc1OC)OCO5`, the T/C was 67 % of control (dose: 50.0 mg/kg/injection, schedule: Q04DX004 (sc), vehicle: saline with Tween-80); 48 % of control (dose: 100.0 mg/kg/injection, schedule: Q04DX004 (sc), vehicle: saline with Tween-80); 79 % of control (dose: 200.0 mg/kg/injection, schedule: Q04DX004 (sc), vehicle: saline with Tween-80); 60 % of control (dose: 400.0 mg/kg/injection, schedule: Q04DX004 (sc), vehicle: saline with Tween-80).
For `CCNC(=O)[B-][N+](C)(C)C`, the T/C runs as follows: (dose: 100.0 mg/kg/injection, schedule: Q04DX004 (sc), vehicle: saline) 94 % of control; (dose: 200.0 mg/kg/injection, schedule: Q04DX004 (sc), vehicle: saline) 60 % of control; (dose: 400.0 mg/kg/injection, schedule: Q04DX004 (sc), vehicle: saline) 43 % of control.
As for `O=Cc1ccc(O)c(O)c1`, the T/C runs as follows: under setting [2], 86 % of control; under setting [3], 58 % of control; under setting [4], 100 % of control.
Take `CS(=O)(=O)OCCN(CCOS(C)(=O)=O)c1ccc(C=O)cc1`: the T/C (dose: 12.5 mg/kg/injection, schedule: Q01DX010 (sc), vehicle: saline) was 100 % of control; the T/C (dose: 25.0 mg/kg/injection, schedule: Q01DX010 (sc), vehicle: saline) is 90 % of control; the T/C (dose: 50.0 mg/kg/injection, schedule: Q01DX010 (sc), vehicle: saline) is 37 % of control.
In the case of `OCCN1CCN(CC/C=C2/c3ccccc3Sc3ccc(C(F)(F)F)cc32)CC1`, the T/C under setting [5] is 80 % of control; the T/C under setting [6] was 49 % of control; the T/C (dose: 20.0 mg/kg/injection, schedule: Q01DX010 (sc), vehicle: saline) was 67 % of control; the T/C under setting [7] is 42 % of control.
On to `NC(=O)Oc1cccc(OC(N)=O)c1`, for which the T/C by setting is: (dose: 50.0 mg/kg/injection, schedule: Q04DX004 (sc), vehicle: suspension in saline) 110 % of control; (dose: 100.0 mg/kg/injection, schedule: Q04DX004 (sc), vehicle: suspension in saline) 102 % of control; under setting [1], 29 % of control; (dose: 400.0 mg/kg/injection, schedule: Q04DX004 (sc), vehicle: suspension in saline) 62 % of control.
On to `C1CN1c1nc(N2CC2)nc(N2CC2)n1`, for which the T/C (dose: 0.25 mg/kg/injection, schedule: Q01DX010 (sc), vehicle: saline) is 213 % of control.
As to `C=CS(C=C)=NS(=O)(=O)c1ccc(C)cc1`, the T/C reads like this: (dose: 18.75 mg/kg/injection, schedule: Q04DX004 (sc), vehicle: Klucel (hydroxypropylcellulose) (HPC)) 91 % of control; (dose: 37.5 mg/kg/injection, schedule: Q04DX004 (sc), vehicle: Klucel (hydroxypropylcellulose) (HPC)) 60 % of control.
Consider `O=CC(=O)c1ccc(O)cc1`, for which the T/C is 73 % of control (dose: 150.0 mg/kg/injection, schedule: Q04DX004 (sc), vehicle: saline); 67 % of control (dose: 300.0 mg/kg/injection, schedule: Q04DX004 (sc), vehicle: saline); 56 % of control (dose: 600.0 mg/kg/injection, schedule: Q04DX004 (sc), vehicle: saline).
Consider `OCCN1CCN(CCCN2c3ccccc3Sc3ccc(C(F)(F)F)cc32)CC1`, for which the T/C by setting is: (dose: 1.25 mg/kg/injection, schedule: Q01DX010 (sc), vehicle: saline) 121 % of control; (dose: 2.5 mg/kg/injection, schedule: Q01DX010 (sc), vehicle: saline) 58 % of control; under setting [5], 118 % of control; under setting [6], 92 % of control.
On to `CCCCCCCCNc1cc2c3c(c1)CCCN3CCC2`, for which the T/C (dose: 3.0 mg/kg/injection, schedule: Q04DX004 (sc), vehicle: Klucel (hydroxypropylcellulose) (HPC)) was 69 % of control; the T/C (dose: 6.0 mg/kg/injection, schedule: Q04DX004 (sc), vehicle: Klucel (hydroxypropylcellulose) (HPC)) was 103 % of control; the T/C (dose: 12.0 mg/kg/injection, schedule: Q04DX004 (sc), vehicle: Klucel (hydroxypropylcellulose) (HPC)) is 73 % of control.
For the molecule `CCCCCCCCCCCCCCCCCC(=O)Nc1ccn(C2OC(CO)C(O)C2O)c(=O)n1` (configuration not stated), the T/C by setting is: under setting [8], 49 % of control and 61 % of control; under setting [2], 67 % of control and 89 % of control; under setting [4], 14 % of control and 32 % of control.
Take `O=C1NC(=O)NC(C(=O)O)N1`: the T/C is, setting by setting: (dose: 50.0 mg/kg/injection, schedule: Q04DX004 (sc), vehicle: Klucel (hydroxypropylcellulose) (HPC)) 101 % of control; (dose: 100.0 mg/kg/injection, schedule: Q04DX004 (sc), vehicle: Klucel (hydroxypropylcellulose) (HPC)) 67 % of control; (dose: 200.0 mg/kg/injection, schedule: Q04DX004 (sc), vehicle: Klucel (hydroxypropylcellulose) (HPC)) 114 % of control; under setting [9], 108 % of control; (dose: 400.0 mg/kg/injection, schedule: Q04DX004 (sc), vehicle: Klucel (hydroxypropylcellulose) (HPC)) 91 % of control; under setting [10], 95 % of control. In addition, the T/C under setting [11] is 58 % of control.
On to `CCN(CC)CCCNc1nccc2c(C)c3[nH]c4ccncc4c3cc12`, for which the T/C by setting is: (dose: 2.5 mg/kg/injection, schedule: Q01DX010 (sc), vehicle: other) 117 % of control; (dose: 5.0 mg/kg/injection, schedule: Q01DX010 (sc), vehicle: other) 108 % of control; (dose: 10.0 mg/kg/injection, schedule: Q01DX010 (sc), vehicle: other) 56 % of control.
As to `Cc1cc(C)c(-c2cc(O)c(C)cc2O)c(C)c1`, the T/C is 68 % of control under setting [11] and 71 % of control (dose: 2400.0 mg/kg/injection, schedule: Q04DX004 (sc), vehicle: Klucel (hydroxypropylcellulose) (HPC)).
Take `O=Cc1c(O)c2ccccc2[nH]c1=O`: the T/C runs as follows: under setting [2], 79 % of control; under setting [3], 98 % of control; under setting [4], 65 % of control.
Turning to `CN=S(=O)(OCCCCCOS(=O)(=NC)c1ccccc1)c1ccccc1` (configuration not stated), the T/C reads like this: under setting [8], 66 % of control; under setting [2], 60 % of control; under setting [3], 27 % of control.
Consider `O=CC=O`, for which the T/C runs as follows: (dose: 50.0 mg/kg/injection, schedule: Q01DX010 (sc), vehicle: saline with Tween-80) 64 % of control; (dose: 100.0 mg/kg/injection, schedule: Q01DX010 (sc), vehicle: saline with Tween-80) 66 % of control; (dose: 200.0 mg/kg/injection, schedule: Q01DX010 (sc), vehicle: saline with Tween-80) 38 % of control.
For `O=S1(=O)C=C(c2ccccc2)C(c2ccccc2)=C1`, the T/C is 58 % of control under setting [8], 83 % of control under setting [2], 97 % of control under setting [3] and 85 % of control under setting [4].
For the molecule `Cc1ccc(S(=O)(=O)N/N=C/C(Br)=C(/Br)C(=O)O)cc1`, the T/C runs as follows: (dose: 150.0 mg/kg/injection, schedule: Q04DX004 (sc), vehicle: Klucel (hydroxypropylcellulose) (HPC)) 47 % of control; under setting [9], 55 % of control; under setting [10], 22 % of control.
With `CC(/C=N/N=C(N)N)=N\N=C(N)N`, the T/C (dose: 12.5 mg/kg/injection, schedule: Q01DX010 (sc), vehicle: water) is 67 % of control.
For `Cc1noc(N)c1N`, the T/C is, setting by setting: (dose: 100.0 mg/kg/injection, schedule: Q04DX004 (sc), vehicle: water) 200 % of control; (dose: 400.0 mg/kg/injection, schedule: Q04DX004 (sc), vehicle: water) 98 % of control; (dose: 800.0 mg/kg/injection, schedule: Q04DX004 (sc), vehicle: water) 200 % of control.
As for `COc1cc(Cc2nccc3cc(OC)c(OC)cc23)c(C(C)=O)c(OC)c1`, the T/C under setting [7] was 35 % of control; the T/C (dose: 80.0 mg/kg/injection, schedule: Q01DX010 (sc), vehicle: saline) was 50 % of control; the T/C (dose: 160.0 mg/kg/injection, schedule: Q01DX010 (sc), vehicle: saline) is 19 % of control.
